pIC50: −log10 of the molar value.
Tested on: 996289-038-R-J1-PDC complex spheroid viability
Test: Anticancer human tumor 996289-038-R-J1-PDC patient-derived colon adenocarcinoma cell line growth inhibition [CLK]
Details: for pIC50: curve of first compound; for viability, T/C: stronger effect = lower value; active = viability on the fitted dose curve at most 10% of control; inactive = the rest
Excerpt: A high-throughput screen of multi-cell type tumor spheroids was designed to identify active combinations of […] and targeted small molecules. Complex spheroids include a stromal component modeled by human endothelial cells (HUVEC) and fibroblasts modeled by human mesenchymal stem cells (MSCs). The concentration ranges selected for each drug and investigational agent were based upon clinically achievable concentrations if the clinical Cmax of the agent was known.
Compounds. The drugs and investigational agents: cirtuvivint (SM08502; NSC835563), CC-671 (NSC850746), vemurafenib (NSC761431), tapotoclax (NSC804041), sotorasib (NSC818433), adagrasib (NSC831453), MRTX-1133 (NSC836407), BAY2416964 (NSC825713), copanlisib (NSC816437), inavolisib (NSC800729), abemaciclib (NSC768073), osimertinib (NSC779217), entinostat (NSC756642), eltanexor (KPT-8602, NSC794443), venetoclax (NSC766270), ceralasertib (NSC777638), bortezomib (NSC756655), olaparib (NSC753686), talazoparib (NSC767125), alisertib (NSC759677), peposertib (NSC802822), gemcitabine (NSC613327), 5-fluorouracil (NSC19893), SN-38 (NSC673596), oxaliplatin (NSC266046), paclitaxel (NSC125973), and doxorubicin (NSC123127), were obtained from the National Cancer Institute (NCI) Developmental Therapeutics Program Chemical Repository. The FDA-approved anticancer drug set is available from the Developmental Therapeutics Program at https://dtp.cancer.gov/organization/dscb/obtaining/available plates.htm. […] The stock solutions were prepared in dimethyl sulfoxide (DMSO, Sigma-Aldrich, St. Louis, MO, cat. D2650), except for the platinum complexes which were prepared in saline (Quality Biological, Gaithersburg, MD, cat. 114-055-101), at 800-fold the tested concentration and stored at -70 degrees C prior to their use. All drugs and investigational agents were tested over a range starting from a high concentration at or near the clinical Cmax and decreasing in half-log increments. If the clinical Cmax for an agent had not been determined, the highest concentration tested was 10 microM.
Cell Culture. All cells were maintained in an incubator at 37 degrees C and 5% CO2 with 95% humidity. The PDC lines were cultured according to standard operating procedures established by the NCI PDMR. Briefly, all PDCs were thawed and cultured in Matrigel-coated flasks prepared with a working solution of 1X Ham's F-12 nutrient mix, without supplementation (Invitrogen, Waltham, MA, cat. 11765054), 100 U/mL penicillin-streptomycin (Invitrogen, cat. 15140122), and 2.5% Matrigel (Corning Inc., Corning, NY, cat. 354248) for the first three passages. The 947758-054-R-J2-PDC line was cultured in 6B/Colon 1A media, which includes advanced DMEM/F-12 (Thermo Fisher Scientific, cat. 12634028), 10 mM HEPES (Thermo Fisher Scientific, cat. 15630080), 1X GlutaMAX supplement (Thermo Fisher Scientific, cat. 35050061), 0.1 mg/mL primocin (InvivoGen, cat. ant-pm-2), 10% defined fetal bovine serum, heat inactivated (HyClone Laboratories Inc., cat. SH30070.03HI), 1.25 mM N-Acetyl-L-cysteine (Sigma-Aldrich, cat. A9165), 10 mM nicotinamide (Sigma-Aldrich, cat. N0636), 1X B-27 supplement (Thermo Fisher Scientific, cat. 17504044), 1X N-2 supplement (Thermo Fisher Scientific, cat. 17502048), and 10 microM Y-27632 dihydrochloride (Tocris Bioscience, cat. 1254). The 876862-298-R-J1-PDC was cultured in 6E media, which includes all 6B/Colon 1A media components plus 50% L-WRN conditioned media (ATCC, cat. CRL-3276), 50 ng/mL recombinant human EGF recombinant protein (hEGF; Thermo Fisher Scientific, cat. PHG0311), 10 ng/mL recombinant human fibroblast growth factor 10 (hGFG-10; PeproTech, cat. 100-26), 1 ng/mL recombinant human fibroblast growth factor 2 (hFGF-2; PeproTech, cat. 100-18B), and 1 µM prostaglandin E2 (PGE2; Tocris, cat. 2296). The 227483-062-R1-J1-PDC line was cultured in Panc media, containing all 6E components except hFGF-2, with the addition of 500 nM SB-431542 (Selleckchem, cat. S1067) and 10 nM gastrin (Tocris, cat. 3006). […]
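Also: spheroids exposed to the agents for 7 days before readout.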

O=c1[nH]cc(F)c(=O)[nH]1 + CNC(=O)c1ccc(Nc2nc(OC3CCCC3)c3c(-c4ccc5nc(C)oc5c4)c[nH]c3n2)c(OC)c1
5.46: pIC50 (second compound 1 µM) | pIC50 (second compound 3.16 µM)
5.80: pIC50 (second compound 10 µM)
inactive: viability, T/C (second compound 0.0316 µM, first compound 0.0316 µM) 108% | viability, T/C (second compound 0.0316 µM, first compound 0.1 µM) 111% | viability, T/C (second compound 0.0316 µM, first compound 0.316 µM) 87.5% | viability, T/C (second compound 0.0316 µM, first compound 1 µM) 86.6% | viability, T/C (second compound 0.0316 µM, first compound 3.16 µM) 86.1% | viability, T/C (second compound 0.0316 µM, first compound 10 µM) 77.8% | viability, T/C (second compound 0.1 µM, first compound 0.0316 µM) 122% | viability, T/C (second compound 0.1 µM, first compound 0.1 µM) 105% | viability, T/C (second compound 0.1 µM, first compound 0.316 µM) 86.1% | viability, T/C (second compound 0.1 µM, first compound 1 µM) 82.1% | viability, T/C (second compound 0.1 µM, first compound 3.16 µM) 81.3% | viability, T/C (second compound 0.1 µM, first compound 10 µM) 74.5% | viability, T/C (second compound 0.316 µM, first compound 0.0316 µM) 80.8% | viability, T/C (second compound 0.316 µM, first compound 0.1 µM) 77% | viability, T/C (second compound 0.316 µM, first compound 0.316 µM) 72.5% | viability, T/C (second compound 0.316 µM, first compound 1 µM) 69.6% | viability, T/C (second compound 0.316 µM, first compound 3.16 µM) 63.8% | viability, T/C (second compound 0.316 µM, first compound 10 µM) 59.1% | viability, T/C (second compound 1 µM, first compound 0.0316 µM) 62.9% | viability, T/C (second compound 1 µM, first compound 0.1 µM) 61.2% | viability, T/C (second compound 1 µM, first compound 0.316 µM) 59.5% | viability, T/C (second compound 1 µM, first compound 1 µM) 53.6% | viability, T/C (second compound 1 µM, first compound 3.16 µM) 50.3% | viability, T/C (second compound 1 µM, first compound 10 µM) 45.5% | viability, T/C (second compound 3.16 µM, first compound 0.0316 µM) 61.9% | viability, T/C (second compound 3.16 µM, first compound 0.1 µM) 60% | viability, T/C (second compound 3.16 µM, first compound 0.316 µM) 55.8% | viability, T/C (second compound 3.16 µM, first compound 1 µM) 51% | viability, T/C (second compound 3.16 µM, first compound 3.16 µM) 53.3% | viability, T/C (second compound 3.16 µM, first compound 10 µM) 46.1% | viability, T/C (second compound 10 µM, first compound 0.0316 µM) 60.4% | viability, T/C (second compound 10 µM, first compound 0.1 µM) 53.9% | viability, T/C (second compound 10 µM, first compound 0.316 µM) 59.2% | viability, T/C (second compound 10 µM, first compound 1 µM) 48% | viability, T/C (second compound 10 µM, first compound 3.16 µM) 47.5% | viability, T/C (second compound 10 µM, first compound 10 µM) 46.7%
< 5.00: pIC50 (second compound 0.0316 µM) | pIC50 (second compound 0.1 µM) | pIC50 (second compound 0.316 µM)
